Test results: US7446210B2, “Factor Xa compounds” (Janssen Pharmaceutica N.V., priority 2004, dated 2008)
Where a name gives a salt, the structure may show the parent alone. Read-outs that look alike come from different tables or passages of the source. One block for each molecule: values may come before it.

What was measured:
[1] = target: T1, Factor Xa (Homo sapiens, UniProt P00742); assay: In vitro inhibition of purified enzymes, Ki determination: Factor Xa (hydrolysis of S-2765); assay type: biochemical; parameters: purchased Enzyme Research Laboratories (South Bend, Ind.); details: purified activated human Factor X, substrate S-2765, 37° C., pH 7.5; read-out: KI FXa
T1 sequence (P00742 235-488 limits assumed): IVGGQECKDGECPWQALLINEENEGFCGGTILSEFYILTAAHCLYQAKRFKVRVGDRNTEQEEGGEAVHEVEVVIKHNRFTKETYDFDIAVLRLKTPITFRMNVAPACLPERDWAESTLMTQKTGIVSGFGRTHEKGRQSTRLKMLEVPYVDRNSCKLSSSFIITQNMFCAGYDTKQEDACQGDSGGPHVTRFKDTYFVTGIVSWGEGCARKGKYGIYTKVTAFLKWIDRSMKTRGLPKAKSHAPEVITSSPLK
T1 sequence (P00742 41-179 partner limits assumed): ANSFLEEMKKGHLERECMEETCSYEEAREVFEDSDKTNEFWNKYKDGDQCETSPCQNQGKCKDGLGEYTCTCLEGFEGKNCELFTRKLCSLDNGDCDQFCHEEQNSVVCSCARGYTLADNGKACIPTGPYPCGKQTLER
Description: (§1) Reagents: All buffer salts were obtained from Sigma Chemical Company (St. Louis, Mo.), and were of the highest purity available. The enzyme substrate, S-2765 (Z-D-Arg-Gly-Arg-p-nitroanilide) was obtained from DiaPharma (West Chester, Ohio). N-succinyl-Ala-Ala-Pro-Arg-p-nitroanilide (BACHEM L-1720) was obtained from BACHEM (King of Prussia, Pa.). N-p-Tosyl-Gly-Pro-Lys-p-nitroanilide (Sigma T6140), N-succinyl-Ala-Ala-Pro-Phe-p-nitroanilide (Sigma S7388), N-CBZ-Val-Gly-Arg-p-nitroanilide (Sigma C7271) was obtained from Sigma and N-succinyl-Ala-Ala-Pro-Val-p-nitroanilide (BACHEM L-1770) was obtained from BACHEM (King of Prussia, Pa.).
(§2) Human α-thrombin and human Factor Xa were obtained from Enzyme Research Laboratories (South Bend, Ind.). Human trypsin was obtained from Calbiochem (La Jolla, Calif.). Human plasmin was obtained from Enzyme Research Laboratories (South Bend, Ind.). Bovine a-chymotrypsin (Sigma C4129) and human kidney cell urokinase (Sigma U5004) was obtained from Sigma. Human leukocyte elastase was obtained from Elastin Products (Pacific, Mo.).
(§3) Ki Determinations: All assays are based on the ability of the test compound to inhibit the enzyme-catalyzed hydrolysis of a peptide p-nitroanilide substrate. In a typical Ki determination, substrate is prepared in DMSO, and diluted into an assay buffer consisting of 50 mM HEPES, pH 7.5, 200 mM NaCl, 0.05% n-octyl b-d-glucopyranoside. The final concentrations for each of the substrates are listed below. In general, substrate concentrations are lower than the experimentally determined value for Km. Test compounds are prepared as 10 mM solutions in DMSO. Dilutions are prepared in DMSO yielding 7 final concentrations encompassing a 200-fold concentration range. Enzyme solutions are prepared at the concentrations listed below in assay buffer.
(§4) Reactions were initiated by the addition of a […] aliquot of enzyme and the absorbance increase at 405 nm is recorded for 15 minutes. Data corresponding to less than 10% of the total substrate hydrolysis were used in the calculations. The ratio of the velocity (rate of change in absorbance as a function of time) for a sample containing no test compound is divided by the velocity of a sample containing test compound, and is plotted as a function of test compound concentration. The data are fit to a linear regression, and the value of the slope of the line calculated. The inverse of the slope is the experimentally determined apparent Ki value (Ki app). The Ki is calculated from the Ki app using the Ki factor specific for the assay, where Ki=Ki app×Ki factor, or Ki=Ki app×(1/ (1+[S]/Km)).
Substrate solutions were prepared at a concentration of 107 mM in assay buffer. Final DMSO concentration was 3.3%. Purified activated human Factor X was diluted into assay buffer to a concentration of 16 nM. Final reagent concentrations were: [Factor Xa]=0.53 nM, [S-2765]=100 mM.

[2] = target: T2, human trypsin; assay: In vitro inhibition of purified enzymes, Ki determination: trypsin (hydrolysis of S-2765); assay type: biochemical; details: substrate S-2765, 37° C., pH 7.5
T2 construct: Purified human trypsin was diluted into assay buffer to a concentration of 10 nM
Description: as §1, §2, §3, §4
Trypsin: Trypsin activity was assessed as the ability to hydrolyze the substrate S-2765 (Z-D-Arg-Gly-Arg-p-nitroanilide, Km=61 mM, Ki factor=0.50). Substrate solutions were prepared at a concentration of 64 mM in assay buffer. Final DMSO concentration was 3.3%. Purified human trypsin was diluted into assay buffer to a concentration of 10 nM. Final reagent concentrations were: [Trypsin]=0.33 nM, [S-2765]=60 mM.

[3] = target: T3, human α-thrombin (Homo sapiens, UniProt P00734); assay: In vitro inhibition of purified enzymes, Ki determination: thrombin (hydrolysis of N-succinyl-Ala-Ala-Pro-Arg-p-nitroanilide); assay type: biochemical; details: substrate N-succinyl-Ala-Ala-Pro-Arg-p-nitroanilide, 37° C., pH 7.5
T3 construct: Purified human a-thrombin was diluted into assay buffer; purchased Enzyme Research Laboratories (South Bend, Ind.)
Description: as §1, §2, §3, §4
Thrombin: Thrombin activity was assessed as the ability to hydrolyze the substrate N-succinyl-Ala-Ala-Pro-Arg-p-nitroanilide (Km=320 mM, Ki factor=0.76). Substrate solutions were prepared at a concentration of 107 mM in assay buffer. Final DMSO concentration was 4.3%. Purified human a-thrombin was diluted into assay buffer to a concentration of 33 nM. Final reagent concentrations were: [thrombin]=1.1 nM, [substrate N-succinyl-Ala-Ala-Pro-Arg-p-nitroanilide]=100 mM.

[4] = target: T1, Factor Xa; details: background statement; cited from earlier work

Molecule: Cc1nn(-c2cccc(CN)c2)c2c(F)c(-c3ccc(C#Cc4ccc5nc(N)sc5c4)cc3)ccc12 [Example 15, 6{4-1-(3-Aminomethyl-phenyl)-7-fluoro-3-methyl-1H-indazol]-phenylethynyl-benzothiazol-2-ylamine]
- Ki [2]: 1590 nM
- Ki [1]: 2820 nM
- Ki [3]: > 15200 nM

Molecule: CN(C)Cc1cnccc1-c1ccc(-c2ccc3c(C(N)=O)nn(-c4ccc5onc(N)c5c4)c3c2F)c(F)c1 [Example 66, 1-(3-Amino-benzo[d]isoxazol-5-yl)-6-[4-(3-dimethylaminomethyl-pyridin-4-yl)-2-fluoro-phenyl]-7-fluoro-1H-indazole-3-carboxylic acid amide]
- Ki [2]: > 10000 nM
- Ki [1]: 2 nM
- Ki [3]: > 15200 nM

Molecule: tick anticoagulant peptide (YNRLCIKPRDWIDECDSNEGGERAYFRNGKGGCDSFWICPEDHTGADYYSSYRDCFNACI; UniProt P17726 1-60, looked up) [TAP]
- Ki [4]: ~0.5 nM

Molecule: O=C1CCCCN1c1ccc(-c2ccc3c(C(F)(F)F)nn(-c4cccc(Cl)c4)c3c2F)c(F)c1 [Example 95, 1-{4-[1-(3-Chloro-phenyl)-7-fluoro-3-trifluoromethyl-1H-indazol-6-yl]-3-fluoro-phenyl}-piperidin-2-one]
- Ki [2]: > 10000 nM
- Ki [1]: 340 nM
- Ki [3]: > 15200 nM

Molecule: antistasin [ATS]
- Ki [4]: 0.05 nM

Molecule: Cc1nn(-c2ccc3onc(N)c3c2)c2c(F)c(-c3ccc(N4CCCCC4=O)cc3)ccc12 [Example 86, 1-{4-[1-(3-Amino-benzo[d]isoxazol-5-yl)-7-fluoro-3-methyl-1H-indazol-6-yl]-phenyl}-piperidin-2-one]
- Ki [2]: > 10000 nM
- Ki [1]: 48 nM
- Ki [3]: > 15200 nM

Molecule: Cc1nn(-c2cccc(CN)c2)c2c(F)c(-c3ccc(N(C)c4ccncc4)cc3F)ccc12 [Example 35]
- Ki [2]: 2900 nM
- Ki [1]: 33 nM
- Ki [3]: > 15200 nM

The next lines start with the values.

- Ki [1]: 660 nM
Molecule: COc1cccc(-n2nc(C)c3ccc(-c4ccc(N5CCCCC5=O)cc4)c(F)c32)c1 [Example 4, 1-{4-[7-fluoro-1-(3methoxy-phenyl)-3-methyl-1H-indazol-6-yl]-phenyl}-piperidin-2-one]

- Ki [2]: > 10000 nM
- Ki [1]: 120 nM
- Ki [3]: > 15200 nM
Molecule: Cc1nn(-c2cccc(CN)c2)c2c(F)c(-c3ccc(N4CCCCC4=O)cc3)ccc12 [Example 6, 1-{4-[1-(3-Aminomethyl-phenyl)7-fluoro-1-3-methyl-1H-indazol-6-yl]-phenyl}-piperidin-2-one]

- Ki [2]: > 10000 nM
- Ki [1]: 5 nM
- Ki [3]: > 15200 nM
Molecule: CN(C)CCCN(c1ccncc1)c1ccc(-c2ccc3c(C(N)=O)nn(-c4ccc5onc(N)c5c4)c3c2F)c(F)c1 [Example 59, 1-(3-Amino-benzo[d]isoxazol-5-yl)-6-{4-[(3-dimethylamino-propyl)-pyridin-4-yl-amino]-2-fluoro-phenyl}-7-fluoro-1H-indazole-3-carboxamide dimesylate salt]

- Ki [2]: 700 nM
- Ki [1]: 220 nM
- Ki [3]: > 15200 nM
Molecule: Cc1nn(-c2cccc(CN)c2)c2c(F)c(-c3ccc(N4CCCC4=O)cc3)ccc12 [Example 7, 1-{4-[1-(3-Aminomethyl-phenyl)-7-fluoro-1-3-methyl-1H-indazol-6-yl]-phenyl}-pyrolidin-2-one]

- Ki [2]: > 10000 nM
- Ki [1]: 40 nM
- Ki [3]: > 15200 nM
Molecule: Cc1nn(-c2ccc3onc(N)c3c2)c2c(F)c(-c3ccc(-n4ccccc4=O)cc3F)ccc12 [Example 25, 1-{4-[1-(3-Amino-benzo[a]isoxazol-5-yl)-7-fluoro-3-methyl-1H-indazol-6-yl]-3-fluoro-phenyl}-1H-pyridin-2-one]

- Ki [2]: 1500 nM
- Ki [1]: 45 nM
- Ki [3]: > 15200 nM
Molecule: Cc1nn(-c2cccc(CN)c2)c2c(F)c(-c3ccc(-c4ccccc4S(C)(=O)=O)cc3F)ccc12 [Example 82, 3-[7-Fluoro-6-(3-fluoro-2′-methanesulfonyl-biphenyl-4-yl)-3-methyl-indazol-1-yl]-benzylamine]

- Ki [2]: 140 nM
- Ki [1]: 1 nM
- Ki [3]: 1600 nM
Molecule: Cc1nn(-c2cccc(C(=N)N)c2)c2c(F)c(-c3ccc(N4CCCCC4=O)cc3F)ccc12 [Example 75, 3-{7-Fluoro-6-[2-fluoro-4-(2-oxo-piperidin-1-yl)-phenyl]-3-methyl-indazol-1-yl}-benzamidine]

- Ki [2]: > 10000 nM
- Ki [1]: 6 nM
- Ki [3]: > 15200 nM
Molecule: NC(=O)c1nn(-c2ccc3onc(N)c3c2)c2c(F)c(-c3ccc(N4CCOCC4=O)cn3)ccc12 [Example 43, 1-(3-Amino-benzo[d]isoxazol-5-yl)-7-fluoro-6-[5-(3-oxo-morpholin-4-yl)-pyridin-2-yl]-1H-indazole-3-carboxylic acid amide; methanesulfonic acid salt]

- Ki [2]: > 10000 nM
- Ki [1]: 46 nM
- Ki [3]: > 15200 nM
Molecule: Cc1nn(-c2ccc3ccnc(N)c3c2)c2c(F)c(-c3ccc(-c4ccccc4S(C)(=O)=O)cc3F)ccc12 [Example 93, 7-[7-Fluoro-6-(3-fluoro-2′-methanesulfonyl-biphenyl-4-yl)-3-methyl-indazol-1-yl]-isoquinolin-1-ylamine]
